# Laboratory results published in ChEMBL document CHEMBL2177086, “Design and synthesis of a stable oxidized phospholipid mimic with specific binding recognition for macrophage scavenger receptors” (J Med Chem, 2012).
# The source made the active and inactive calls. The calls are words filed in the database; no cut-off is given here.
# Legend:
# [1] = molecular target: Platelet glycoprotein 4 (Mus musculus) (UniProt Q08857); test: Displacement of Bt-CuOxLDL from CD36 receptor in mouse J774 cells after 2 hrs by chemiluminescent assay; assay type: cell-based
# Platelet glycoprotein 4 (Mus musculus), sequence (Q08857 whole entry): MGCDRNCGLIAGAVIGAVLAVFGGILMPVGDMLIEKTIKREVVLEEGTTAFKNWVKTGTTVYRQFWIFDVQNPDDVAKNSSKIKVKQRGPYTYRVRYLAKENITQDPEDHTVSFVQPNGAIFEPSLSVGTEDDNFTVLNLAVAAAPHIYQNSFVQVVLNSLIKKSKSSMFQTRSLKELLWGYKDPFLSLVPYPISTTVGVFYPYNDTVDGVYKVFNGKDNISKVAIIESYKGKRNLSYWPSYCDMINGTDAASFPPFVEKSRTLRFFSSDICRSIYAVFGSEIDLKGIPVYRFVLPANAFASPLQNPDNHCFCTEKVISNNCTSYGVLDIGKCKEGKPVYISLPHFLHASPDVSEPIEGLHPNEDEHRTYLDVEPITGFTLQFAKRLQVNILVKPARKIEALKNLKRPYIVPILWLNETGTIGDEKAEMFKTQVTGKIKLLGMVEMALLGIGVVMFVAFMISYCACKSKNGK
# [2] = molecular target: Platelet glycoprotein 4 (Homo sapiens) (UniProt P16671); test: Displacement of CuOxLDL from CD36 receptor expressed in CHO cells; assay type: cell-based
# Platelet glycoprotein 4 (Homo sapiens), sequence (P16671 whole entry): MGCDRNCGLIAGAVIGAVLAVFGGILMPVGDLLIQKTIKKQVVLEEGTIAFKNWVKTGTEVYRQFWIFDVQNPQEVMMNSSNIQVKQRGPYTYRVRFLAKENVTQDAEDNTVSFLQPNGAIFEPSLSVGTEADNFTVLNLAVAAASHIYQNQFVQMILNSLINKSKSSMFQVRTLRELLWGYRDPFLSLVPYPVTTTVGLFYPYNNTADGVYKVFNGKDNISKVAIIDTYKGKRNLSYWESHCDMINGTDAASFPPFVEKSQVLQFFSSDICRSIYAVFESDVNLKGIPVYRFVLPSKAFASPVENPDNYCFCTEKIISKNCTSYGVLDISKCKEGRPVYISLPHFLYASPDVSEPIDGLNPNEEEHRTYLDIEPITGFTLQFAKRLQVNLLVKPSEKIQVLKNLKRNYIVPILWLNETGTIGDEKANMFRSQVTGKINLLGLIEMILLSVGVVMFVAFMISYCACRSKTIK
# J774 [3] = test: Cytotoxicity against mouse J774 macrophages assessed as effect on protein content up to 72 hrs; assay type: cell-based; settings: j774, 72 h
# J774 [4] = test: Cytotoxicity against mouse J774 macrophages assessed as effect on cell number up to 72 hrs; assay type: cell-based; settings: j774, 72 h
# [5] = Binding affinity to monoclonal antibody E06 by solid phase chemiluminescent immunoassay
Compound,inhibition [1],Activity [2],Activity (J774 [3]),Activity (J774 [4]),Activity [1],Activity [5]
H-TGTKGG-OH,inactive,–,–,–,–,–
CCCCCCCCCCCCCCCC(=O)OC[C@H](COP(=O)([O-])OCC[N+](C)(C)C)OC(=O)CCCCN(C)CCCC[C@H](NC(=O)[C@@H](NC(=O)CNC(=O)[C@@H](NC(C)=O)[C@@H](C)O)[C@@H](C)O)C(=O)NCC(=O)NCC(=O)O,–,Active,Non-toxic,Non-toxic,> 99%,Active
